Format in all cases: cell-based
For assay [1], the system named is MHH-CALL-4 cells. Description: Cytotoxicity assay (resazurin, 72 hours). To be noted: for EC50: MHHCALL4, resazurin; for AUC: area under the dose-response curve. Details: AUC: unit not given beside the values. In a few lines:
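Cells grown in RPMI1640 with 10% FBS, 2×10⁵ per well, were exposed to pin-transferred compounds in triplicate for 72 h at 37 °C, 5% CO2. Viability was read after 4 h resazurin incubation. Dose-response AUC was calculated per compound; selected data were fitted by non-linear regression.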

For assay [2], the target named is T1, JAK1 (Homo sapiens, UniProt P23458).
T1 construct: endogenous in cells; host or cells: MHH-CALL-4
T1 sequence (P23458 whole entry): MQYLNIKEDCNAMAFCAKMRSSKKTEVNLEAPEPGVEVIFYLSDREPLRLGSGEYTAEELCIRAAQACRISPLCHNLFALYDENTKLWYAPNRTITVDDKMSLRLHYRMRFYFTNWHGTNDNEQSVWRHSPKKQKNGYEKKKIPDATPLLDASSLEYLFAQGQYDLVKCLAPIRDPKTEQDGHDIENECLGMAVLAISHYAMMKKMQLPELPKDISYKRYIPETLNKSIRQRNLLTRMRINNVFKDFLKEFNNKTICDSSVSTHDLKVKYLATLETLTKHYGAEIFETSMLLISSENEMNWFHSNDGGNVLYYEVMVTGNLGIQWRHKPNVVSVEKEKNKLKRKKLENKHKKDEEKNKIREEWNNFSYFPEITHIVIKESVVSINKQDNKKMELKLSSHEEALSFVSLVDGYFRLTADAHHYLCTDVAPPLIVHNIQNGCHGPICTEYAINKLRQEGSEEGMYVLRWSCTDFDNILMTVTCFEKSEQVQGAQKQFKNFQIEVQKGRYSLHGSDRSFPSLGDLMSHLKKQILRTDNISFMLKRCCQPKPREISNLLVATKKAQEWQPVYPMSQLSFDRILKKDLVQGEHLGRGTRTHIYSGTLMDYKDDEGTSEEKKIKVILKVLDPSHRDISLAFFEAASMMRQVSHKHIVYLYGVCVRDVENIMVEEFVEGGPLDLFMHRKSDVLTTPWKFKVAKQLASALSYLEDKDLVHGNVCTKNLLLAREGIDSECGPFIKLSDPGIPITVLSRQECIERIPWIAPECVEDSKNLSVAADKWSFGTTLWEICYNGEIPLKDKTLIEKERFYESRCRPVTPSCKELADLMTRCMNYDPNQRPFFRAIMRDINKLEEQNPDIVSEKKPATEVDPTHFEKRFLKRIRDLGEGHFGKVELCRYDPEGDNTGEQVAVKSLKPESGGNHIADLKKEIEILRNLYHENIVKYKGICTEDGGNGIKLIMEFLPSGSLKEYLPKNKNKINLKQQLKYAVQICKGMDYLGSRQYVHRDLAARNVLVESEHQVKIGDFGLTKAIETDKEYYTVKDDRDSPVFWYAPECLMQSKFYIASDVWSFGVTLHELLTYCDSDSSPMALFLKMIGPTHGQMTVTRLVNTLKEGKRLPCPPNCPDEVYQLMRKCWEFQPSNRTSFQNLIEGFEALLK
Description: Western blot assay, JAK1 protein degradation. To be noted: MHH-CALL-4 cells, vehicle control = 100%. Put shortly:
(§1)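 Immunoblot quantification in MHH-CALL-4 cells. Band intensities were normalized to ACBT and set relative to vehicle control (100%).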

The subject of assay [3] is JAK2. Nature of the assay: Western blot assay, JAK2 protein degradation. To be noted: MHH-CALL-4 cells, vehicle control = 100%. In a few lines: as §1
The target in assay [4] is T2, JAK3 (Homo sapiens, UniProt P52333).
T2 construct: endogenous in cells; host or cells: MHH-CALL-4
T2 sequence (P52333 1-1124): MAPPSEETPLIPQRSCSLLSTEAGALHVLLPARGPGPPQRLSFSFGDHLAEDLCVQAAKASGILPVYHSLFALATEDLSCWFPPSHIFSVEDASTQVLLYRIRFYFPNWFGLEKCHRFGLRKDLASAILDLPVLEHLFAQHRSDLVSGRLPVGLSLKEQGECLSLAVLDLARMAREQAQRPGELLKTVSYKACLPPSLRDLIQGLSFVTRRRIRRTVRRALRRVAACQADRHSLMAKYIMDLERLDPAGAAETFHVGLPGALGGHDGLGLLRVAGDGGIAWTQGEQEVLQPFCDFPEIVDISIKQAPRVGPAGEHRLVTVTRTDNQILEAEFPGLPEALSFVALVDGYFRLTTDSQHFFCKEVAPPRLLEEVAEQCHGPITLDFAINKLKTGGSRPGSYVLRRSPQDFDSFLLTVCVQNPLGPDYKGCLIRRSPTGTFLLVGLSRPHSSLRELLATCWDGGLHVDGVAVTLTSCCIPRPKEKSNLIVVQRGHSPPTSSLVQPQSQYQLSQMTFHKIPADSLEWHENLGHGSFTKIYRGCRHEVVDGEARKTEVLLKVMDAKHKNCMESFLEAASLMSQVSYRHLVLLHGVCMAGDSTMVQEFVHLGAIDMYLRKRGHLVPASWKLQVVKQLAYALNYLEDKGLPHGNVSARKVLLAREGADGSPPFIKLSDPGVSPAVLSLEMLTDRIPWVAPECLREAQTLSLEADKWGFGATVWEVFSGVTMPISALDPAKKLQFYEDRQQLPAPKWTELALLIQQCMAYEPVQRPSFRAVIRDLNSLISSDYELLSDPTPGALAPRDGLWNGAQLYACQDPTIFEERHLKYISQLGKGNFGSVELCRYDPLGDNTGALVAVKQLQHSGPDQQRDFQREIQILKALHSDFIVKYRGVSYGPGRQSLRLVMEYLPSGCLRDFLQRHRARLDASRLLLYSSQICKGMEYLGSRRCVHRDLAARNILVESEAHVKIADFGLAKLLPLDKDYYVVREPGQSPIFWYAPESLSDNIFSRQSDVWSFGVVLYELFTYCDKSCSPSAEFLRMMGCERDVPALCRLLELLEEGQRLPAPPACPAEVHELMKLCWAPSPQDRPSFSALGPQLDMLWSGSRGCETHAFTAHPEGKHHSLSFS
Nature of the assay: Western blot assay, JAK3 protein degradation. To be noted: MHHCALL4; 100 nM, 24 h; MHH-CALL-4 cells; vehicle control = 100%; read-out: Target Protein Degradation (% remaining at 100 nM, 24 h) JAK3. In a few lines: as §1

Assay [5] deals with T3, TYK2 (Homo sapiens, UniProt P29597).
T3 construct: endogenous in cells; host or cells: MHH-CALL-4
T3 sequence (P29597 whole entry): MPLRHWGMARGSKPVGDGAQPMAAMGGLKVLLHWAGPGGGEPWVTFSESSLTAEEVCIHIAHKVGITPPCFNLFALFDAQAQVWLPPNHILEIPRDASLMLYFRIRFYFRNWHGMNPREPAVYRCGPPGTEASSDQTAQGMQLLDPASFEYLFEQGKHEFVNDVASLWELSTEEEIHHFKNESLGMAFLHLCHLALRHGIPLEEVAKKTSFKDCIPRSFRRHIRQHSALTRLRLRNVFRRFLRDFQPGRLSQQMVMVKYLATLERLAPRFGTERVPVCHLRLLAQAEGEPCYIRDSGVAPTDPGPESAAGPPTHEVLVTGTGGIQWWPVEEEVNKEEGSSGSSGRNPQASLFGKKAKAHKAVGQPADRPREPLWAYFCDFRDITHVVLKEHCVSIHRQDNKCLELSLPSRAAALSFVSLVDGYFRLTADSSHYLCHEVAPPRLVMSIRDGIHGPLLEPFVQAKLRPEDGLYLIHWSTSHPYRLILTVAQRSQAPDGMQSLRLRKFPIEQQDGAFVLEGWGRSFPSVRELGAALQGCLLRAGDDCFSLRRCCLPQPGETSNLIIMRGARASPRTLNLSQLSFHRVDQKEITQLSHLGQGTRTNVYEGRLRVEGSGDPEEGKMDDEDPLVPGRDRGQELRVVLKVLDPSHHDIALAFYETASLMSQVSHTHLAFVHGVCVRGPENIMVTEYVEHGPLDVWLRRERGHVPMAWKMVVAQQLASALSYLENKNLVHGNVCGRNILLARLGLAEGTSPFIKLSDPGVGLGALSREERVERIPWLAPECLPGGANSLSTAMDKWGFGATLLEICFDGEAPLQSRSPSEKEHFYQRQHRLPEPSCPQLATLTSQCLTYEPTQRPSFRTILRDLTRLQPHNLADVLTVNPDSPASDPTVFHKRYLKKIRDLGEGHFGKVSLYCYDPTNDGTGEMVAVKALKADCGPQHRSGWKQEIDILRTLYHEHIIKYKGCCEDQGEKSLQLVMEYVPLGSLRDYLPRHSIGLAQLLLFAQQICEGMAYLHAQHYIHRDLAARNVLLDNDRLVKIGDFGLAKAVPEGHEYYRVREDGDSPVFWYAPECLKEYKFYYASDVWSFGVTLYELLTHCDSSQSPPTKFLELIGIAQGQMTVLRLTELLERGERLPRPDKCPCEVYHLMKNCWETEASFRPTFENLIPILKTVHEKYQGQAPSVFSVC
Description: Western blot assay, TYK2 protein degradation. To be noted: MHH-CALL-4 cells, vehicle control = 100%. Here is the method: (§2) Western blot assay: MHH-CALL-4 Cells were washed twice with ice-cold PBS and lysed in RIPA lysis buffer (Sigma) freshly supplemented with Halt™ Protease Inhibitor Cocktail (ThermoFisher) for 15 minutes on ice. The cell pellet was removed by centrifugation at 13,000 g at 4° C. for 15 minutes. Protein concentration was measured by BCA assay (Thermo Fisher Scientific). Proteins were denatured in NuPAGE LDS 4× sample buffer supplemented with reducing agents (Invitrogen). Typically, 10-20 μg of total protein was loaded per lane on a 4%-12% NUPAGE Bis-Tris gradient gel (Invitrogen) and analyzed by standard immunoblotting and imaged using Li—COR Odyssey CLx (LI-COR Biotechnology, Lincoln, NE). To access the protein degradation, the signal of target protein was normalized by the signal of ACBT and the signal of vehicle control was set as 100%. Primary antibodies used were: JAK1 (Cell Signaling #3332S), JAK2 (#3230S), JAK3 (#8827S), TYK2 (#9312S), GSPT1 (#14980S), CRBN (#71810S), IKZF1 (Santa Cruz Biotechnology, SC-398265) and ACBT (Santa Cruz Biotechnology, SC-47778).

For assay [6], the target named is T4, GSPT1 (Homo sapiens, UniProt P15170).
T4 construct: endogenous in cells; host or cells: MHH-CALL-4
T4 sequence (P15170 whole entry): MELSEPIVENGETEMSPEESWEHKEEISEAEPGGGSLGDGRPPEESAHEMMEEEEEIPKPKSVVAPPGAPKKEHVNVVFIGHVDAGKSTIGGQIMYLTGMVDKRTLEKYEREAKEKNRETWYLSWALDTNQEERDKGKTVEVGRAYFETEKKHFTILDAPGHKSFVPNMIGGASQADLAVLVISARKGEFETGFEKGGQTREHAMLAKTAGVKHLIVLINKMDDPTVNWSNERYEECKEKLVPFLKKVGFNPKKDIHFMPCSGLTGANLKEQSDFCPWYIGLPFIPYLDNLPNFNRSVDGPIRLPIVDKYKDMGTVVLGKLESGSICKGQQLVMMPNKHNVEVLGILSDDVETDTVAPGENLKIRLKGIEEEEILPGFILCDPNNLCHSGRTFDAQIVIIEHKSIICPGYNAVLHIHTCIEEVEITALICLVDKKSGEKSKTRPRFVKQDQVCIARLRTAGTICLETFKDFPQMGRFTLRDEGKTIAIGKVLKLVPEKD
Nature of the assay: Western blot assay, GSPT1 neosubstrate degradation. To be noted: MHHCALL4; 100 nM, 24 h; MHH-CALL-4 cells; vehicle control = 100%. In a few lines: as §1

Assay [7] addresses T5, IKZF1 (Homo sapiens, UniProt Q13422).
T5 construct: endogenous in cells; host or cells: MHH-CALL-4
Nature of the assay: Western blot assay, IKZF1 neosubstrate degradation. To be noted: MHH-CALL-4 cells, vehicle control = 100%. Here is the method:
as §2

This is an account of results in patent US20240124465A1, “MOLECULES AND METHODS RELATED TO TREATMENT OF DISORDERS ASSOCIATED WITH JAK-2 SIGNALING DYSFUNCTION” (ST. JUDE CHILDREN'S RESEARCH HOSPITAL, priority 2020, published 2024).

T5 sequence (Q13422 whole entry): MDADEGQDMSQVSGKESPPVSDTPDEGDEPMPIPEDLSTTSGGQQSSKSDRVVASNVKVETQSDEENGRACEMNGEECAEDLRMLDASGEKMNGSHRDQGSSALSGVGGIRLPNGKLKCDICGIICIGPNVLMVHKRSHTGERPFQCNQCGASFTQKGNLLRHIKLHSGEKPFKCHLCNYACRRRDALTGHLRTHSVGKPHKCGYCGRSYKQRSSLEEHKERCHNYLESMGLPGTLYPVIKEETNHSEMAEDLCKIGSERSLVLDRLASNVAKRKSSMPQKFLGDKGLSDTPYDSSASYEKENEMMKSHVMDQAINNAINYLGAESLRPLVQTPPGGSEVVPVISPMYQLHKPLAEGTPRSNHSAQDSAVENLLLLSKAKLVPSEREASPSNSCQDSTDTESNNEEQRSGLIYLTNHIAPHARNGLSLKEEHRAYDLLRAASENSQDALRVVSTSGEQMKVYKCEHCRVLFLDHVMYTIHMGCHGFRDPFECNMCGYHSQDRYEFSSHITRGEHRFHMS

Turning to `CCS(=O)(=O)N1CC(CC#N)(n2cc(-c3nc(Nc4ccc(C(=O)NCCCN5CCN(c6ccc(C7CCC(=O)NC7=O)cc6)CC5)cc4)nc4[nH]ccc34)cn2)C1` (centres unmarked) [Compound 10], in assay [1], the EC50 stood at 2580 nM and the AUC is given as 114. For the same molecule, the “Target Protein Degradation (% remaining at 100 nM, 24 h) JAK1” value in assay [2] came out at 86 % remaining. The “Target Protein Degradation (% remaining at 100 nM, 24 h) JAK2” value in assay [3] came to 25 % remaining. The remaining activity at 0.1 µM in assay [4] was found to be 46%. For the same molecule, the “Target Protein Degradation (% remaining at 100 nM, 24 h) TYK2” value in assay [5] stood at 118 % remaining. In assay [6], the remaining activity at 0.1 µM is 109%. Further, the “Neosubstrate Degradation (% remaining at 100 nM, 24 h) IKZF1” value in assay [7] was 87 % remaining.
In the case of `CCS(=O)(=O)N1CC(CC#N)(n2cc(-c3nc(Nc4ccc(C(=O)NCCNC(=O)COc5ccc(C6CCC(=O)NC6=O)cc5)cc4)nc4[nH]ccc34)cn2)C1` (centres unmarked) [Compound 17], the EC50 in assay [1] was greater than 784 nM. Besides, the “Target Protein Degradation (% remaining at 100 nM, 24 h) JAK1” value in assay [2] came to 105 % remaining. Moreover, the “Target Protein Degradation (% remaining at 100 nM, 24 h) JAK2” value in assay [3] was 120 % remaining. Further, the remaining activity at 0.1 µM in assay [4] is 102%; in assay [6], 110%. Besides, the “Target Protein Degradation (% remaining at 100 nM, 24 h) TYK2” value in assay [5] turned out to be 88 % remaining. The “Neosubstrate Degradation (% remaining at 100 nM, 24 h) IKZF1” value in assay [7] is 96 % remaining.
Take `CCS(=O)(=O)N1CC(CC#N)(n2cc(-c3nc(Nc4ccc(C(=O)NCCCNC(=O)COc5ccc(C6CCC(=O)NC6=O)cc5)cc4)nc4[nH]ccc34)cn2)C1` (centres unmarked) [Compound 18]: the EC50 in assay [1] is greater than 812 nM. Also, the AUC in assay [1] was 95. Besides, the “Target Protein Degradation (% remaining at 100 nM, 24 h) JAK1” value in assay [2] is on record as 83 % remaining. The “Target Protein Degradation (% remaining at 100 nM, 24 h) JAK2” value in assay [3] is listed as 82 % remaining. The remaining activity at 0.1 µM in assay [4] turned out to be 80%; in assay [6], 117%. In addition, in assay [5], the “Target Protein Degradation (% remaining at 100 nM, 24 h) TYK2” value is reported as 122 % remaining. The “Neosubstrate Degradation (% remaining at 100 nM, 24 h) IKZF1” value in assay [7] is 105 % remaining.
